Assay results: patent publication US7521418B2, “Use of a polyene macrolide antifungal agent in combination with a glycopeptide antibacterial agent” (Theravance, Inc., priority 2003, dated 2009)

Experiments:
C. neoformans ATCC 56991 = experiment: Checkerboard MIC assay, FICI; type: cell-based, Cryptococcus neoformans; conditions: combination with Compound 1
From the text: The following assay was used to determine the minimum inhibitory concentration (MIC) and fractional inhibitory concentration index (FICI) for combinations of an antifungal agent and a glycopeptide antibacterial agent. This assay and methods for calculating FICI are well known in the art. See, for example, Eliopoulos, E. G. and R. Moellering, Jr. “Antimicrobial Combinations” in Antibiotics in Laboratory Medicine, edited by V. Lorian, 4th Ed., Williams & Wilkins, Baltimore, MD, pp. 330-396 (1996); […] et al., Antimicrobial Agents and Chemotherapy 47(4):1416-1418 (2003); or […] et al., Antimicrobial Agents and Chemotherapy 46(10):3323-3326 (2002). […] The MIC of the glycopeptide antibacterial agent determined from this experiment was used in FIC calculations. […]

[1] = tested on: C. parapsilosis ATCC 22019; experiment: Checkerboard MIC assay, FICI; type: cell-based, Candida parapsilosis; conditions: combination with Compound 1; C. parapsilosis ATCC 22019
From the text: The following assay was used to determine the minimum inhibitory concentration (MIC) and fractional inhibitory concentration index (FICI) for combinations of an antifungal agent and a glycopeptide antibacterial agent. This assay and methods for calculating FICI are well known in the art. See, for example, Eliopoulos, E. G. and R. Moellering, Jr. “Antimicrobial Combinations” in Antibiotics in Laboratory Medicine, edited by V. Lorian, 4th Ed., Williams & Wilkins, Baltimore, MD, pp. 330-396 (1996); […] et al., Antimicrobial Agents and Chemotherapy 47(4):1416-1418 (2003); or […] et al., Antimicrobial Agents and Chemotherapy 46(10):3323-3326 (2002). Procedures, protocols, supplies and equipment used in this assay follow the recommendations approved and published by the National Committee for Clinical Laboratory Standards (NCCLS), Wayne, Pa. as described in NCCLS 2003, “Reference Method for Broth Dilution Antimicrobial Susceptibility Tests for Bacteria that Grow Aerobically; Approved Standard” (NCCLS document M7-A6); NCCLS 2002, “Reference Method for Broth Dilution Antifungal Susceptibility Tests of Filamentous Fungi that Grow Aerobically; Approved Standard” (NCCLS document M38-A); and NCCLS 2002 “Reference Method for Broth Dilution Antifungal Susceptibility Tests of Yeast; Approved Standards-2nd Edition” (NCCLS document M27-A2). Using a checkerboard method, a 2-fold dilution 100× final concentration master plate was prepared using a 96-well U-shape microtiter plate and an appropriate solvent. In the “checkerboard” method, a microtiter plate is divided into “columns” in which each well in the column contains the same amount of an antifungal agent (Compound A) being diluted along the x-axis, and “rows” in which each well in the row contains the same amount of a glycopeptide antibacterial agent (Compound B) being diluted on the y-axis. Also included is a row (or column) for Compound A or B alone. The dilutions used in the checkerboard are exponential (by powers of two). The result is that each well in the microtiter plate contains a unique concentration of the two compounds being tested. […] After mixing, 100 μL of 2× drug combinations were distributed into 96-well microtiter plates. […] Compound A was not added to Column 12, so Column 12 contained only Compound B. Compound B was diluted from row A starting at 6,400 μg/mL down to row G (100 μg/mL). Wells in Row A contained a final concentration of 64 μg/mL of Compound B; Row B contained a final concentration of 32 μg/mL of Compound B; Row C contained a final concentration of 16 μg/mL of Compound B; etc. Compound B was not added to Row H, so Row H only contained Compound A. […] The MIC of the glycopeptide antibacterial agent determined from this experiment was used in FIC calculations. […] RPMI-1640 without sodium bicarbonate media (GIBCO-BRL, Carlsbad, Calif.), an enriched media formulated for mammalian cells, was used according to the NCCLS guidelines for yeast and filamentous fungi susceptibility testing. The medium was buffered with 0.165 M 3-[N-Morpholino]propanesulfonic acid (MOPS) supplemented with 20 g/L glucose and pH adjusted to 7.0 with hydrogen chloride. Sabouraud Dextrose Agar ([…] plates, and Potato Dextrose Agar (PDA) plates were purchased from Hardy Diagnostic (Santa Maria, Calif.). Yeast cultures were started from -80° C. frozen stock streaked on […] incubated at 35° C. under aerobic conditions for 24 h. The […] in the refrigerator for up to 2 weeks and used regularly as a starting culture. About 24 to 48 h before each assay was run, yeasts were streaked on SDA plates for isolated colonies. To prepare the inoculum, from one to four colonies were resuspended in 5 mL of saline, and vortexed for 15 sec. […] For most yeast and mold cultures, the optical density (OD) of the suspension was adjusted to 0.11 in saline to provide 0.4×10^6 CFU/mL. However, for Fusarium moniliforme and Pseudallescheria boydii the OD of the suspension was adjusted to OD=0.17 to provide 0.4×10^6 CFU/mL. […]

Row | SMILES | FICI (C. neoformans ATCC 56991) | FICI [1]
1 | C[C@@H]1[C@H](O)[C@@H](C)/C=C/C=C/C=C/C=C/C=C/C=C/C=C/[C@H](O[C@@H]2O[C@H](C)[C@@H](O)[C@H](N)[C@@H]2O)C[C@@H]2O[C@](O)(C[C@@H](O)C[C@@H](O)[C@H](O)CC[C@@H](O)C[C@@H](O)CC(=O)O[C@H]1C)C[C@H](O)[C@H]2C(=O)O [Amphotericin B] | 0.25 | 0.28
2 | C[C@@H]1[C@H](O)[C@@H](C)/C=C/C=C/CC/C=C/C=C/C=C/C=C/C(O[C@H]2O[C@H](C)[C@@H](O)[C@H](N)[C@@H]2O)CC2O[C@](O)(CC(O)C(O)CCC(O)CC(O)CC(O)CC(=O)O[C@H]1C)CC(O)C2C(=O)O (stereo partly shown) [Nystatin] | 0.5 | 0.31
